Results reported in publication PMC7591811 (Journal of Pharmaceutical Analysis, 2020).

Legend:
[1] = system: Cl^- channel (GABA gated); experiment: Lead profiling screen; type: binding; conditions: 10 μM, Rat
[2] = system: BZD (central); experiment: Lead profiling screen; type: binding; conditions: 10 μM, Rat
[3] = biological target: BZD (peripheral) (Rattus norvegicus, UniProt P16257); experiment: Lead profiling screen; type: binding; conditions: for inhibition at 10 µM: BZD (peripheral) / TSPO, Rat
Chain of BZD (peripheral) (P16257 whole entry): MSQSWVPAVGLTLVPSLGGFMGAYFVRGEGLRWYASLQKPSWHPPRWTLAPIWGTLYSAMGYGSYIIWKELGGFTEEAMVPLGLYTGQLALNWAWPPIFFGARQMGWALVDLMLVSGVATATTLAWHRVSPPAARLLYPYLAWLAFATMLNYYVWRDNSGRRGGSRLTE

[4] = biological target: T1, AR (Homo sapiens, UniProt P10275); experiment: Lead profiling screen; type: binding; conditions: Rat
T1 sequence (P10275 1-920): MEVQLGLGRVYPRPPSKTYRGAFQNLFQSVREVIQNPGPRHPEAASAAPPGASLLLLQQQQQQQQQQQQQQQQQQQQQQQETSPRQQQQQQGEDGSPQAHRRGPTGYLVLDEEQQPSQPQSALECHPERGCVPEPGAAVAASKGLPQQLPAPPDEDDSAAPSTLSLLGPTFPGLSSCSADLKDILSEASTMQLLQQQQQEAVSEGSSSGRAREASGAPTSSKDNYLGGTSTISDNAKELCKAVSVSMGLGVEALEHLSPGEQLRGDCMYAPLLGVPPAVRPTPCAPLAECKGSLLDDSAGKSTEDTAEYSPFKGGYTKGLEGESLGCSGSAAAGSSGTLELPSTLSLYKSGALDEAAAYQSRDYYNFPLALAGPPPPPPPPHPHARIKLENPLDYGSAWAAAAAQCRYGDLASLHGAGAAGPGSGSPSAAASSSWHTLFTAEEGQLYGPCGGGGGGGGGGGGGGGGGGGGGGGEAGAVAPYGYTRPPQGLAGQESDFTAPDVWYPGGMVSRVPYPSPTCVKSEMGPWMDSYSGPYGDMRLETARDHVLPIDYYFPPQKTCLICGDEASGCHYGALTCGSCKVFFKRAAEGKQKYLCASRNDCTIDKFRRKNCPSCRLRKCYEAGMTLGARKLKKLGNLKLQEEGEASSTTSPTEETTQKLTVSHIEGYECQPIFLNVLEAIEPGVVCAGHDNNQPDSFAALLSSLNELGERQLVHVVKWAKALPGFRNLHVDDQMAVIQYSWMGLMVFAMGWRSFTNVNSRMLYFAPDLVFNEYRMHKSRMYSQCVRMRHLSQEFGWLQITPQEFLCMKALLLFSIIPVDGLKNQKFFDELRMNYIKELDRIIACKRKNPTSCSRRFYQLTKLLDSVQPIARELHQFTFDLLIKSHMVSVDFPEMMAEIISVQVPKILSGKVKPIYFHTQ

[5] = biological target: Melatonin MT1 (Homo sapiens, UniProt P48039); experiment: Lead profiling screen; type: binding
Chain of Melatonin MT1 (P48039 whole entry): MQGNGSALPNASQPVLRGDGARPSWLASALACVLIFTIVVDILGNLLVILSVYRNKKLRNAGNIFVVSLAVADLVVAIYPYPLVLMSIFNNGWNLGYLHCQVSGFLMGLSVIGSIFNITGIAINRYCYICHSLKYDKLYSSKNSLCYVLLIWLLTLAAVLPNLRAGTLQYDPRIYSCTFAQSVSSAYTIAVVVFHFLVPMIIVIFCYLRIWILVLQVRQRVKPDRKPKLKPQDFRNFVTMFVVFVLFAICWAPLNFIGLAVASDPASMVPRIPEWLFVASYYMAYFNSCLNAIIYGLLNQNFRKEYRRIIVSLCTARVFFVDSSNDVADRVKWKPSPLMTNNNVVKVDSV

[6] = biological target: T2, Melatonin MT2 (Homo sapiens, UniProt P49286); experiment: Lead profiling screen; type: binding; conditions: for inhibition at 10 µM: Melatonin MT2, Human
T2 sequence (P49286 1-362): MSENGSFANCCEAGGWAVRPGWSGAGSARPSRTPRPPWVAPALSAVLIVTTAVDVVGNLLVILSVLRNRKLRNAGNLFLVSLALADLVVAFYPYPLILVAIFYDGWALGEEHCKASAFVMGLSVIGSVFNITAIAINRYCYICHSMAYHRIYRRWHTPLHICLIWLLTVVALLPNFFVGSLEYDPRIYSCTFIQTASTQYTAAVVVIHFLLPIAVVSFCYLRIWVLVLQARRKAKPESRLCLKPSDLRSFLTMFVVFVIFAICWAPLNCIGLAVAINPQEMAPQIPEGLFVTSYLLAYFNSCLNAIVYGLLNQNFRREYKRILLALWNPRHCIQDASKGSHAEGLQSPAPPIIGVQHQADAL

[7] = biological target: T3, Adenosine A3 (Homo sapiens, UniProt P0DMS8); experiment: Lead profiling screen; type: binding; conditions: for inhibition at 10 µM: Adenosine A3, Human
T3 sequence (P0DMS8 1-318): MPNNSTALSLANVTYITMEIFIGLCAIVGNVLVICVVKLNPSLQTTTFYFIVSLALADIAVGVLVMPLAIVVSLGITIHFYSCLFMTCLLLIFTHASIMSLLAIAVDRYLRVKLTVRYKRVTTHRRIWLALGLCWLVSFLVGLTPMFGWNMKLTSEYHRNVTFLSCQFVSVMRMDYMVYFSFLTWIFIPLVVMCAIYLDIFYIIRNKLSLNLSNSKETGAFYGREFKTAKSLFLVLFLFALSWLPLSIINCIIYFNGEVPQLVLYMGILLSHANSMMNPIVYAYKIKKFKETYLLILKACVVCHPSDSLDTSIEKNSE

[8] = biological target: ctRAGE; conditions: read-out: ctRAGE Kd; cited from earlier work
[9] = biological target: Serotonin (5-Hydroxytryptamine) 5-HT2B (Homo sapiens, UniProt P41595); experiment: Lead profiling screen; type: binding; conditions: for inhibition at 10 µM: 5-HT2B, Human
Chain of Serotonin (5-Hydroxytryptamine) 5-HT2B (P41595 whole entry): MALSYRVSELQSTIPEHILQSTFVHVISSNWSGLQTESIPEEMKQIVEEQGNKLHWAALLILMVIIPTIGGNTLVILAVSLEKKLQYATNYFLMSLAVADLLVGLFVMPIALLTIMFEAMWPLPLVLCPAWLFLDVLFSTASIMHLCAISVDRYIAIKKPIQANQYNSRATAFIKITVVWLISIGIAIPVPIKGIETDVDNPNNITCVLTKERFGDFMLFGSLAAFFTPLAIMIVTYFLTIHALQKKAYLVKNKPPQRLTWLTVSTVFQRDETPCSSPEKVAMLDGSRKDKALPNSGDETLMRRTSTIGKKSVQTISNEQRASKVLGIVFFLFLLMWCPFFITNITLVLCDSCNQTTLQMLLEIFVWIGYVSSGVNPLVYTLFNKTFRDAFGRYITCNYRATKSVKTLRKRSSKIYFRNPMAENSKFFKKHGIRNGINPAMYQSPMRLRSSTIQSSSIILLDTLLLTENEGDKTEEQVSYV

[10] = biological target: T4, UT (Homo sapiens, UniProt Q9UKP6); experiment: Lead profiling screen; type: binding; conditions: for inhibition at 10 µM: UT, Human
T4 sequence (Q9UKP6 1-389): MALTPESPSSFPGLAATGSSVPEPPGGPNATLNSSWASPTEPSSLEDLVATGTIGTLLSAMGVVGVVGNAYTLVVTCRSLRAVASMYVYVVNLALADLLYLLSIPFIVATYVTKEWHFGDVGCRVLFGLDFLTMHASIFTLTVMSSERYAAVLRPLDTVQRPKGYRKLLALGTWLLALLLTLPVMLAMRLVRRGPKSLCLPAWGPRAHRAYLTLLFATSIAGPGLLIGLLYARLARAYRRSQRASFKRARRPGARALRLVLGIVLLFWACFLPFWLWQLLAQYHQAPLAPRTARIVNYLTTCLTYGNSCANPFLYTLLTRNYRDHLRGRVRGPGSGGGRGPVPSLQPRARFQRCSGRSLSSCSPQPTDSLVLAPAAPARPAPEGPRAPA

[11] = biological target: Cyclooxygenase 1 (Homo sapiens, UniProt P23219); experiment: Lead profiling screen, enzyme assay; type: biochemical
Chain of Cyclooxygenase 1 (P23219 24-599, species assumed): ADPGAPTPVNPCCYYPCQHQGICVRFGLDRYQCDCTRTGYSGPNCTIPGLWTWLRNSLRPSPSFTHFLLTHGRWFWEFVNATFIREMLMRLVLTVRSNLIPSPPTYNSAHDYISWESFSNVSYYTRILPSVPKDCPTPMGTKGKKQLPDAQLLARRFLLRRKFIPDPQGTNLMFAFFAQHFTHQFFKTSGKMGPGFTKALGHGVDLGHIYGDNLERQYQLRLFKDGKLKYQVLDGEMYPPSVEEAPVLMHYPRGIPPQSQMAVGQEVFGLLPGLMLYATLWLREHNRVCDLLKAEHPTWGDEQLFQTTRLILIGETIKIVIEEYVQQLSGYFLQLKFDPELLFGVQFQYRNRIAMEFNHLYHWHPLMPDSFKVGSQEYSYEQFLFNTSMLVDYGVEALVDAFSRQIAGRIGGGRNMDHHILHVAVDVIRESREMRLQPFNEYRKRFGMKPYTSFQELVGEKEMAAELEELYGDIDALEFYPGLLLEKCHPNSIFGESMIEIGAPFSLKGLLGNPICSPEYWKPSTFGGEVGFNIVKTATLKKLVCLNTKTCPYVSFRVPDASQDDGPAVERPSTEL

[12] = biological target: EP2 (Homo sapiens, UniProt P43116); experiment: Lead profiling screen; type: binding
Chain of EP2 (P43116 whole entry): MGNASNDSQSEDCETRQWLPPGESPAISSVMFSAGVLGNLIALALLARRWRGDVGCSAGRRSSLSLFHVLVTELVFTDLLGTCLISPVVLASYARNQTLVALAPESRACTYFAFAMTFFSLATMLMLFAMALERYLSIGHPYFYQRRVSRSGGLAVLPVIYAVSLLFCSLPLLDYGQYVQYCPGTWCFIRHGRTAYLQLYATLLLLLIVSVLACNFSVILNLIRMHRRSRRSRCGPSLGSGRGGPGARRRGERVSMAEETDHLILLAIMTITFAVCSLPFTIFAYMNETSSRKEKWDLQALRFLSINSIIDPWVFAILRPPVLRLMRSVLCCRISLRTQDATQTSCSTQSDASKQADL

[13] = biological target: Serotonin (5-Hydroxytryptamine) 5-HT2A (Homo sapiens, UniProt P28223); experiment: Lead profiling screen; type: binding
Chain of Serotonin (5-Hydroxytryptamine) 5-HT2A (P28223 whole entry): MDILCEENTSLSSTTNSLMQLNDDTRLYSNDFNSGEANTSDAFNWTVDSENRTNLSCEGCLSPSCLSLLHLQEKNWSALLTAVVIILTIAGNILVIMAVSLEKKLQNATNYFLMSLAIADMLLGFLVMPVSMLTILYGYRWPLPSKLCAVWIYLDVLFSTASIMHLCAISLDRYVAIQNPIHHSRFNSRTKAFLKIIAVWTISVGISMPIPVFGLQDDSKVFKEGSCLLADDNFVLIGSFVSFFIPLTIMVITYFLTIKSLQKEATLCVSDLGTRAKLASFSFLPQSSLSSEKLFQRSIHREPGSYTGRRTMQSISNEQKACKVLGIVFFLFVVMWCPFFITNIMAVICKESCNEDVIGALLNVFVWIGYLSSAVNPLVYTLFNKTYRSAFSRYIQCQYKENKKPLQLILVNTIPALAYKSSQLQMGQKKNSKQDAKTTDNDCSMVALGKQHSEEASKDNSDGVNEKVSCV

[14] = biological target: Norephinephrine transporter (Homo sapiens, UniProt P23975); experiment: Lead profiling screen; type: binding
Chain of Norephinephrine transporter (P23975 whole entry): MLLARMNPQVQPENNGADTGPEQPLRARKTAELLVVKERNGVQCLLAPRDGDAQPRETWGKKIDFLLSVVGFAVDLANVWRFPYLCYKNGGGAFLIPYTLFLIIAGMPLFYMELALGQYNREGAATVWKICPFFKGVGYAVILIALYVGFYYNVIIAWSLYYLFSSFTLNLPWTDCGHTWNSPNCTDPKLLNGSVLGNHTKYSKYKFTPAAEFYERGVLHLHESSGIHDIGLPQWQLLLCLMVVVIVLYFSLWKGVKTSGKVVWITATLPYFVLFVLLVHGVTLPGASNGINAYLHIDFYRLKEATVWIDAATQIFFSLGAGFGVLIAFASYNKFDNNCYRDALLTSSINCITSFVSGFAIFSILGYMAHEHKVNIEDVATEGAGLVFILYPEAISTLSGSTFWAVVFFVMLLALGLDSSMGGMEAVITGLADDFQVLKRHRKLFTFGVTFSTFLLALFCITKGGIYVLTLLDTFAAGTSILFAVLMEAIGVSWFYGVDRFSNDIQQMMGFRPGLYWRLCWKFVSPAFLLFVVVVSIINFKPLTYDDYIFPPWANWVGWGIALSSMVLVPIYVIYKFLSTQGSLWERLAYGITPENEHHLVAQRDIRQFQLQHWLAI

[15] = [18F]RAGER autoradiography, competitive binding with melatonin; parameters: species or system human; conditions: 10 μM melatonin; control, AD and DLB + AD brain tissue sections
[16] = Nonhuman primate [18F]RAGER PET, melatonin blocking and displacement; conditions: NHP
[17] = Rodent [18F]RAGER PET, melatonin blocking; conditions: 5 μg/kg i.v. 10 min prior to [18F]RAGER, healthy rodents
[18] = biological target: Peripheral benzodiazepine receptor (Rattus norvegicus, UniProt P16257); experiment: Lead profiling screen, RAGER; type: binding
Chain of Peripheral benzodiazepine receptor (P16257 whole entry): as the sequence (P16257 whole entry) above

[19] = biological target: T5, Androgen (Testosterone) (Homo sapiens, UniProt P10275); experiment: Lead profiling screen; type: binding
T5 sequence (P10275 1-920): T1 sequence (P10275 1-920)

[20] = biological target: Transporter, Dopamine (DAT) (Homo sapiens, UniProt Q01959); experiment: Lead profiling screen; type: binding
Chain of Transporter, Dopamine (DAT) (Q01959 whole entry): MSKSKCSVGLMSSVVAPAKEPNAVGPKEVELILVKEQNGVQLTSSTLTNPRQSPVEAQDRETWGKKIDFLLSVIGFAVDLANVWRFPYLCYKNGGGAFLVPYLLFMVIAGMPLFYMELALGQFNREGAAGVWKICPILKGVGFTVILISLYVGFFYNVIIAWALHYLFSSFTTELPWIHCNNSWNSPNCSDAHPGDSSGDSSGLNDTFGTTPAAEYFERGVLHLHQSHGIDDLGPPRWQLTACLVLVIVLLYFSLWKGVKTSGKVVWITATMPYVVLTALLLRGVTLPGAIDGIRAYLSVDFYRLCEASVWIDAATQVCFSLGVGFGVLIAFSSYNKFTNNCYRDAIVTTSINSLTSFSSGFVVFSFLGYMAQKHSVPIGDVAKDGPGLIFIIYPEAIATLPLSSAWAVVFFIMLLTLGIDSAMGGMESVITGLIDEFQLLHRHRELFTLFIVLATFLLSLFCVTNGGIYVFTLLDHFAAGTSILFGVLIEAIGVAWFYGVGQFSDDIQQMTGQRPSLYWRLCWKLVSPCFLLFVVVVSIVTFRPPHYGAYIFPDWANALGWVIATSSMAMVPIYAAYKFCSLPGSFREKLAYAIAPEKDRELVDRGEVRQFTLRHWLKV

[21] = cited from earlier work

| inhibition at 10 µM [3] [%] | Ki [5] [nM] | inhibition at 10 µM [5] [%] | Ki [6] [nM] | inhibition at 10 µM [6] [%] | inhibition at 10 µM [7] [%] | IC50 [9] [nM] | Ki [9] [nM] | inhibition at 10 µM [9] [%] | IC50 [3] [nM] | Ki [3] [nM] | IC50 [10] [nM] | Ki [10] [nM] | inhibition at 10 µM [10] [%] | Ki [7] [nM] | Structure (SMILES) | Kd [8] [nM] | further results |
| --- | --- | --- | --- | --- | --- | --- | --- | --- | --- | --- | --- | --- | --- | --- | --- | --- | --- |
| 85 | 1200 | 54 | 4400 | 54 | 64 | – | – | – | – | – | – | – | – | – | O=C(c1ccc(Cl)cc1)N(Cc1ccccc1)C1CCCCC1 [FPS-ZM1, N-Benzyl-N-cyclohexyl-4-chlorobenzamide] | – | % Inhibition [1]: 62%; % Inhibition [2]: 59%; inhibition at 10 µM [4]: 88%; IC50 [5]: 1500 nM; IC50 [6]: 7000 nM |
| 81 | – | – | – | – | 75 | 260 | 130 | 95 | 480 | 440 | 1400 | 1000 | 85 | 830 | COc1cc(NC(C)=O)c(Cl)cc1C(=O)Nc1nccs1 [InRAGER2, 4-Acetamido-5-chloro-2-methoxy-N-(thiazol-2-yl)benzamide] | 0.3 ± 0.05 | IC50 [11]: 12000 nM; IC50 [7]: 1400 nM |
| – | – | – | – | – | 99 | 260 | 550 | 97 | 480 | 12000 | 1400 | 8900 | 78 | 24 | Oc1cccc(Nc2nc(-c3ccc(F)cc3F)cs2)c1 [InRAGER, 3-((4-(2,4-difluorophenyl)thiazol-2-yl)amino)phenol] | 1 ± 0.5 | Ki [12]: 2300 nM; inhibition at 10 µM ([12]; 10 μM, EP2, Human): 74%; Ki [13]: 7800 nM; Ki [14]: 1500 nM; inhibition at 10 µM ([14]; 10 μM, Norephinephrine transporter, Human): 95% |
| – | – | – | – | – | – | – | – | – | – | – | – | – | – | – | COc1ccc2[nH]cc(CCNC(C)=O)c2c1 [Melatonin] | – | displacement of [18F]RAGER [15]: not able to displace; change in radioligand uptake, maximal SUV, TAC shape vs baseline (blocking) ([16]; 5 μg/kg i.v. 10 min prior to [18F]RAGER): did not reveal any decrease; maximal SUV or TAC shape vs baseline (displacement) ([16]; 10 μg/kg i.v. 40 min into the 90 min scan): did not differ significantly; effect on [18F]RAGER uptake or washout compared to baseline [17]: no effect |
| – | 93 | 96 | 700 | 82 | – | – | – | – | – | – | – | – | – | – | O=C(c1ccc(F)cc1)N(Cc1ccccc1)C1CCCCC1 [RAGER, N-Benzyl-N-cyclohexyl-4-fluorobenzamide] | – | Ki [18]: 8500 nM; inhibition at 10 µM ([18]; read-out: %Inhibition at 10 μM): 64%; Ki [19]: 2600 nM; inhibition at 10 µM [19]: 59%; Ki [20]: 6800 nM; inhibition at 10 µM [20]: 52%; experimental log P [21]: 3.5 |
